Key:
29 nm liposomes = conditions: with 29 nm liposomes; cited from earlier work
[1] = tested on: PS-exposing cell membranes; assay: Fluorescence staining of PS-exposing membranes in dissected gonads of C. elegans; type: in vivo; conditions: wild type (N2), tat-1(tm3117) and ced-7(n2094) animals
Protocol: Fluorescence staining assays were carried out in an acceptible C. elegans model with PS-exposing cell membranes. […] NBD-MARCKS-ED was used to stain the dissected gonads of wild type (N2) animals, tat-1(tm3117) mutant animals, and engulfment-deficient ced-7 (n2094) mutant animals, respectively. 36 hour old hermaphrodite adult animals were collected and gently dissected by cutting their heads in a depression slide with a gonad dissection buffer (previously presented) to expose the gonads. The exposed gonads were then washed once in the dissection buffer and transferred to a dissection buffer containing 4 μM of Hoechst 33342 and 20 μM of NBD labeled MARCKS-ED peptide, 20 μM NBD-MARCKSmut1 peptide, or 10 nM Alexa Fluor 488-conjugated Annexin-V for 45 minutes. Gonads were washed one more time in the dissection buffer, placed on a 5% agarose pad, and visualized using a Nomarski microscope equipped with an epifluorescence detector.
FIGS. 6A-6C illustrate exemplary staining results using MARCKS derived peptides and Annexin V. PS is typically kept in the inner leaflet of plasma membranes in living cells and is exposed on the cell surface only under certain cellular events, i.e., when cells undergo apoptosis or lose the ability to maintain the PS asymmetry with a tat-1 gene mutation. FIG. 6A represents the staining results with labeled MARCKS-ED in wild type and mutants C. elegans. […] FIG. 6B represents the staining results with labeled MARCKSmut1 in wild type and mutants C. elegans. […] In FIGS. 6A-6B, nuclei were stained with Hoechst 33342. Annexin-V, a known PS-sensor, was also used to stain the gonads of tat-1 and ced-7 mutant C. elegans. […] Hoechst33342 (4 μM), FITC-AnnexinV (10 nM) and Nomarski images are shown. […] Scale bar=10 μm.

synthetic lipid vesicles = assay: Fluorescence enhancement assay of NBD-labeled MARCKS peptides with synthetic vesicles; type: binding; conditions: FIG. 4B
Description: In another exemplary method, lipid vesicles were employed to the curvature-sensing behavior of the MARCKS derived peptides with various sizes and lipid components. The membrane curvature is defined as the reciprocal of the diameter of a particular particle, e.g., smaller-sized vesicles present highly curved membrane bilayers. A series of lipid models were made to represent various lipid components that closely resemble the lipid composition of biological membranes. […] Dynamic light scattering (DLS) and negative-stain transmission electron microscopy (TEM) were performed to confirm the different vesicle sizes following the pressure-controlled extrusion process through different membrane diameter pores. Commercial polystyrene beads were used as the calibration standard for the vesicle size validation experiments. Furthermore, a time-course experiment was carried out to confirm the stability of the vesicles up to 16 hours. Three different membrane diameters were extruded for the following biophysical characterizations: 30 nm, 100 nm, 400 nm, reflecting different membrane curvatures.
Next, a fluorescence enhancement assay was conducted to further quantify the curvature- and PS-sensing behavior of MARCKS-ED. Appropriate controls were performed to confirm that the fluorophore alone had no effect on the observed fluorescence enhancement (data not shown). FIG. 4 represents histogram data of fluorescence enhancement assay with and fluorescence anisotropy titration of the NBD labeled MARCKS derived peptides. Upon binding to lipid vesicles, the fluorescence intensity of NBD-MARCKS-ED increased due to vesicle binding and changes in the hydrophobic environment surrounding the fluorophore, concurring with a slight blue shift of the maximum emission wavelength. The emission spectra of all NBD-labeled peptides were recorded using a Fluorolog-3 fluorometer with λex=480 nm. The peptides and protein were tested at a concentration of 500 nM in PBS (pH 7.40) treated with 500 μM synthetic vesicles of different vesicles sizes. […] The positive control C2AB (200 nM) from the rat Synaptotagmin-1 (Syn-1) protein (G374, residues 96-421) was treated with CaCl2 (2.5 mM) and observed with λex of 275 nm and emission range of 300-450 nm. The untreated peptide and Ca^2+-C2AB samples were corrected by the PBS (pH=7.40) blank solution for the peptides and PBS with Ca^2+ for the Ca^2+-C2AB sample. All samples were prepared and incubated overnight in 4° C.
FIG. 4A illustrates a histogram plot of fluorescence intensity of MARCKS-ED treated with lipid vesicles of various sizes. […] Last, the fluorescence intensity differences were less significant with vesicles containing no PS. […]

[2] = tested on: lipid vesicles 60% POPC:15% cholesterol:15% POPE:10% POPS; assay: Fluorescence anisotropy titration of NBD-labeled MARCKS peptides with lipid vesicles; type: binding; conditions: FIG. 4D
Protocol: In another example, because fluorescence enhancement assays could not distinguish the contributions between different degrees of membrane penetration and binding affinity, fluorescence anisotropy assay was performed to specifically measure the binding affinity of the MARCKS derived peptides. The NBD-labeled peptides (1 μM) were titrated by synthetic liposomes of various sizes (30, 100, and 400 nm). Fluorescence anisotropy was recorded using a Fluorolog-3 fluorometer. The mixture was allowed to equilibrate for 2 minutes prior to the next titration. The excitation wavelength was set to λex=480 nm whereas the emission filter was set to λem=545 nm. The voltage was set to 250 V throughout the experiment. Blank PBS (pH=7.40) was titrated to NBD-labeled peptides as a negative control, where negligible anisotropy change was observed. The following equation was used to determine the dissociation constants as previously reported: Fb=Kp [L]/(1+KP[L]), where Fb expresses the fraction of peptide bound to lipids, Kp expresses the molar partition coefficient and [L] expresses the lipid concentration.
Lipid vesicles were titrated to NBD-labeled MARCKS-ED, MARCKSmut1, or MARCKSmut2 peptides. Since the peptide partitions between the hydrophobic lipid bilayer and the aqueous solvent, the molar partition coefficient is often reported. By definition, the apparent dissociation constant (Kd), described as the lipid concentration where 50% of the peptide is bound, is the reciprocal of the molar partition coefficient (Kp). Fluorescence anisotropy assay results indicated efficient curvature sensing by MARCKS-ED. FIG. 4C represents an exemplary fluorescence anisotropy titration of MARCKS-ED with various lipid vesicles. FIG. 4D provides data of fluoresence anisotropy titration of various MARCKS derived peptides. Lipid vesicles used in the experiments represented by FIGS. 4C-4D contained 60% POPC:15% cholesterol: 15% POPE: 10% POPS. […] As a comparison, C2AB illustrated a 1.9 fold increase in binding to smaller vesicles (105 nm) relative to the larger ones (252 nm). […] In addition, electrostatic interactions of MARCKSmut2 were also compromised. […] Such defects would permit the Phe residue to insert and stabilize the highly curved membranes.

microvesicles in plasma = assay: Nanoparticle tracking analysis of microvesicles in plasma from stressed rats treated with MARCKS peptides; type: binding, rat; conditions: Alexa Fluor 546 labeled peptides 55 nM
Protocol: These isolated microvesicles were measured by nanoparticle tracking analysis (NTA) to confirm their average size (ø=56 nm). Tracking analyses were performed using the NanoSight LM10-HS instrument (Amesbury, UK) equipped with a 532 nm laser and observed at scatter and fluorescence modes (filter=550 nm). The instrument was calibrated using commercially available 50 nm polystyrene beads. […] Alexa Fluor 546™-labeled mouse anti-rat CD63 and unconjugated Alexa Fluor 546™ were used as positive and negative controls, respectively. The profiles of MARCKS-ED-Alexa Fluor 546™ and Alexa Fluor 546™ in the absence of microvesicles were also investigated to confirm that these show negligible scatter and fluorescence background signals under identical NTA conditions.
FIG. 5A represents fluorescence enhancement assay with MARCKS-ED incubated with the isolated microvesicles. Peptide MARCKS-ED ([…]) not treated with microvesicles was used as a negative control. Annexin-V (a positive control) and MARCKS-ED were incubated with the isolated rat microvesicles. Fluorescence was normalized to the negative control. […] The diameter size and particle count of the isolated microvesicles detected by MARCKS-ED was further quantified. Nanoparticle tracking analysis (NTA) uses a laser for scatter and fluorescence modes to track small particles by Brownian motion, providing a robust method for detecting nano-sized microvesicles. Under the fluorescence mode with the emission filter set for the Alexa Fluor 546™, the particles that bound to MARCKS-ED, MARCKSmut1, and MARCKSmut2peptides were observed.
FIG. 5B illustrates the results of NTA of microvesicles treated with MARCKS derived peptides. […] The untreated plasma samples were detected using the scatter mode and treated samples were monitored by tracking the fluorescence of Alexa Fluor 546™ conjugated to the MARCKS-ED MARCKSmut1 and MARCKSmut2 peptides. […] Furthermore, blank samples were performed to rule out possible artifacts of background fluorescence from the peptides, the vesicles and the unconjugated dye.

isolated microvesicles = assay: Fluorescence enhancement with isolated rat microvesicles; type: binding
Protocol: In another exemplary method, having established the simultaneous curvature- and PS-sensing by MARCKS-ED in synthetic liposomes, MARCKS-ED was tested on detection of highly curved, PS-enriched particles in a complex biological system. Microvesicles (ø=0.03-1 μm) are highly curved lipid vesicles that shed into body fluids (e.g., blood, urine, ascitic fluid). These vesicles are released by cancerous cells in which lipid asymmetry is de-regulated, contributing to externalization and enrichment of PS on their outer leaflet. The microvesicle detecting ability of MARCKS-ED was investigated using plasma samples from a stressed rat model. […]
Microvesicles in these samples were characterized by TEM imaging, and ELISA of detection of the signature CD63 protein and the membrane transport protein Rab5b exposed on the surface. Particles expressing both proteins were captured by antibodies and quantified in a colorimetric endpoint assay.
These isolated microvesicles were measured by nanoparticle tracking analysis (NTA) to confirm their average size (ø=56 nm). Tracking analyses were performed using the NanoSight LM10-HS instrument (Amesbury, UK) equipped with a 532 nm laser and observed at scatter and fluorescence modes (filter=550 nm). […]
Monitored at λex=295 nm, Annexin-V (0.32 μM) was treated with CaCl2 (3 mM) in TES buffer and with 500 μM lipid vesicles of varying PS content. […]

Row | Substance | fluorescence enhancement (29 nm liposomes) [RFU] | staining of PS-exposed membranes [1] | fluorescence enhancement and curvature sensing (synthetic lipid vesicles) | binding affinity [2] | binding to microvesicles in whole plasma (NTA fluorescence mode) (microvesicles in plasma) | binding to isolated microvesicles (fluorescence enhancement) (isolated microvesicles)
1 | Golgi-microtubule-associated protein-2101-38: ALPS motif-bearing established curvature-sensing protein fragment (MSSWLGGLGSGLGQSLGQVGGSLASLTGQISNFTKDML; UniProt Q15643 1-38, looked up, fragment) | ~1.25 |  |  |  |  | 
2 | KKKKKRASAKKSAKLSGASAKKNKK [MARCKSmut1, MARCKS-ED with the five Phe residues mutated to Ala] |  | did not appear to detect PS-exposed membranes in either tat-1 or ced-7 mutant animals | significantly reduced fluorescence enhancement | greatly reduced binding affinity | some preferential binding to smaller vesicles but with much weaker fluorescence signal | 
3 | Annexin-V: established PS-sensing protein, positive control [reference compound] |  | germ cell corpses stained with both Hoechst and FITC-AnnexinV protein |  |  |  | Fluorescence enhancement was observed
4 | AAAAAAFSFAASFALSGFSFAANAA [MARCKSmut2, MARCKS-ED with positively charged residues (Lys, Arg) mutated to Ala] |  |  | significantly reduced fluorescence enhancement | compromised | only negligible binding | 
5 | nuclear pore complex protein-133245-267: ALPS motif-bearing established curvature-sensing protein fragment (LPQGQGMLSGIGRKVSSLFGILS; UniProt Q8WUM0 245-267, looked up, fragment) | ~1.25 |  |  |  |  | 
